Results reported in ChEMBL document CHEMBL4715706, “Discovery of Benzotriazolo[4,3-d][1,4]diazepines as Orally Active Inhibitors of BET Bromodomains” (ACS Med Chem Lett, 2016).
pIC50: −log10 of the molar value.

Tests used:
[1] = Unbound clearance in rat at 1 mg/kg, iv; format: ADME, organism-based; details: in vivo
[2] = target: Bromodomain-containing protein 2 (Homo sapiens, UniProt P25440); experiment: Inhibition of BRD2 BD2 (unknown origin) using biotinylated JQ1 analog as substrate measured after 20 mins by AlphaLISA assay
[3] = Oral bioavailability in rat at 10 mg/kg; format: ADME, organism-based; details: in vivo
[4] = Protein binding in human plasma; format: ADME, cell-free; details: read-out: PPB (converted)
[5] = Intrinsic clearance in rat liver microsomes
[6] = target: T1, ATPase family AAA domain-containing protein 2 (Homo sapiens, UniProt Q6PL18); experiment: Inhibition of His-tagged ATAD2 (unknown origin) using biotinylated acetylated peptide as substrate measured after 20 mins by AlphaLISA assay
T1 sequence (Q6PL18 whole entry): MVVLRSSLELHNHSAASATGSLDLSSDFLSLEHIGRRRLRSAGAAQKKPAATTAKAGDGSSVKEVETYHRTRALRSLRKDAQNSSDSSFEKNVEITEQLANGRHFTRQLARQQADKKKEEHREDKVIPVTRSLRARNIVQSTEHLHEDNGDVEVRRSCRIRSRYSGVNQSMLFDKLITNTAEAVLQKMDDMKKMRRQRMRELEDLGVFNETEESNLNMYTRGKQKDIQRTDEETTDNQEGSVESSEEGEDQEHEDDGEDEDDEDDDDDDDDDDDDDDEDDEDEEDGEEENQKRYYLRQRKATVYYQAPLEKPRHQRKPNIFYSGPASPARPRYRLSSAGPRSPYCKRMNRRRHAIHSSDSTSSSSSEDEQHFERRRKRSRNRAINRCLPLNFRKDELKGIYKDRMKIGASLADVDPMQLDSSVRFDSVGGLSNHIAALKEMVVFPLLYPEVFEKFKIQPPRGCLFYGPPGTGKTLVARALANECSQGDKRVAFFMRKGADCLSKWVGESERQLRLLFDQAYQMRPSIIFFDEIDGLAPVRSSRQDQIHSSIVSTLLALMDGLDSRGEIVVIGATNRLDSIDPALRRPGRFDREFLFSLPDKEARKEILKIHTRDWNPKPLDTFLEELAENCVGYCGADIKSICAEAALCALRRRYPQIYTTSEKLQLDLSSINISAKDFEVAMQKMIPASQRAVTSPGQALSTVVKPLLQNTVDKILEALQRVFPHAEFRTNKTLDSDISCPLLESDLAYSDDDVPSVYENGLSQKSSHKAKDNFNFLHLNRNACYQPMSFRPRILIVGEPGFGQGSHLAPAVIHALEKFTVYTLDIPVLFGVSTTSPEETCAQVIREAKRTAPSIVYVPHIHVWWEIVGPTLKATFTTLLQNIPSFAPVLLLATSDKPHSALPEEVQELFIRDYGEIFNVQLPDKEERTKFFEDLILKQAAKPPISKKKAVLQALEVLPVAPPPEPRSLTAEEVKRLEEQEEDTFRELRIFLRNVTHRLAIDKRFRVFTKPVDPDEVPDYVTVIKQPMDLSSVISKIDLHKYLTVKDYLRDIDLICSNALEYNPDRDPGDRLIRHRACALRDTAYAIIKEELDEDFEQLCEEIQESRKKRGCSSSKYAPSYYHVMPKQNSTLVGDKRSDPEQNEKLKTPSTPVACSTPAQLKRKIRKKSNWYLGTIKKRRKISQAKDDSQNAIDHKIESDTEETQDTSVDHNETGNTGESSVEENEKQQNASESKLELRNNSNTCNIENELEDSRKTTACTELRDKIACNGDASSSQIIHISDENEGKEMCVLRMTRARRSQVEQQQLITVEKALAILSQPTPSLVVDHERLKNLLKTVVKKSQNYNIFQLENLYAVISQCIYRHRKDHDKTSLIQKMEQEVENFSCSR

[7] = target: T2, Bromodomain testis-specific protein (Homo sapiens, UniProt Q58F21); experiment: Inhibition of BRDT BD2 (unknown origin) using biotinylated JQ1 analog as substrate measured after 20 mins by AlphaLISA assay
[8] = Cmax in rat at 10 mg/kg, po; format: ADME, organism-based; design: route oral, dose 10 mg/kg; details: in vivo
[9] = target: T2, Bromodomain testis-specific protein; experiment: Inhibition of BRDT BD1 (unknown origin) using biotinylated JQ1 analog as substrate measured after 20 mins by AlphaLISA assay
[10] = target: Nucleosome-remodeling factor subunit BPTF (Homo sapiens, UniProt Q12830); experiment: Inhibition of BPTF (unknown origin) measured after 70 mins by TR-FRET assay
[11] = Half life in rat at 10 mg/kg, po; format: ADME, organism-based; details: in vivo
[12] = target: Bromodomain-containing protein 3 (Homo sapiens, UniProt Q15059); experiment: Inhibition of BRD3 BD2 (unknown origin) using biotinylated JQ1 analog as substrate measured after 20 mins by AlphaLISA assay
[13] = Intrinsic clearance in human liver microsomes
[14] = target: T3, Bromodomain-containing protein 9 (Homo sapiens, UniProt Q9H8M2); experiment: Inhibition of His-tagged BRD9 (unknown origin) using biotinylated acetylated peptide as substrate measured after 20 mins by AlphaLISA assay
T3 sequence (Q9H8M2 whole entry): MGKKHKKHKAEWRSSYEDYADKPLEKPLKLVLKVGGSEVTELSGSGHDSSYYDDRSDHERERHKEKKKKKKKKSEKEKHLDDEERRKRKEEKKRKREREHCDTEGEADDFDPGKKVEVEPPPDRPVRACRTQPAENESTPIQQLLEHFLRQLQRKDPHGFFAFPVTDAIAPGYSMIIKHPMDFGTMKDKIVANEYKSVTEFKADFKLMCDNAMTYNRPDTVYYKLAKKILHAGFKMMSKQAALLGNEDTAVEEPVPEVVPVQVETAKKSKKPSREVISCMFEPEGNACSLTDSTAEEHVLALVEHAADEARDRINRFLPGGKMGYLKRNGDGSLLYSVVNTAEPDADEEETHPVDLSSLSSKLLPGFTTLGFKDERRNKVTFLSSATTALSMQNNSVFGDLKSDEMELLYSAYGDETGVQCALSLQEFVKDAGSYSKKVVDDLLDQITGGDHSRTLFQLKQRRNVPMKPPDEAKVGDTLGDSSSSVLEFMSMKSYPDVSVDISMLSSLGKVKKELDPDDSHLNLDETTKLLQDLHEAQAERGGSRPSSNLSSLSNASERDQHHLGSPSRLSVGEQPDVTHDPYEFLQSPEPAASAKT

Sequence of Bromodomain-containing protein 2 (P25440 whole entry): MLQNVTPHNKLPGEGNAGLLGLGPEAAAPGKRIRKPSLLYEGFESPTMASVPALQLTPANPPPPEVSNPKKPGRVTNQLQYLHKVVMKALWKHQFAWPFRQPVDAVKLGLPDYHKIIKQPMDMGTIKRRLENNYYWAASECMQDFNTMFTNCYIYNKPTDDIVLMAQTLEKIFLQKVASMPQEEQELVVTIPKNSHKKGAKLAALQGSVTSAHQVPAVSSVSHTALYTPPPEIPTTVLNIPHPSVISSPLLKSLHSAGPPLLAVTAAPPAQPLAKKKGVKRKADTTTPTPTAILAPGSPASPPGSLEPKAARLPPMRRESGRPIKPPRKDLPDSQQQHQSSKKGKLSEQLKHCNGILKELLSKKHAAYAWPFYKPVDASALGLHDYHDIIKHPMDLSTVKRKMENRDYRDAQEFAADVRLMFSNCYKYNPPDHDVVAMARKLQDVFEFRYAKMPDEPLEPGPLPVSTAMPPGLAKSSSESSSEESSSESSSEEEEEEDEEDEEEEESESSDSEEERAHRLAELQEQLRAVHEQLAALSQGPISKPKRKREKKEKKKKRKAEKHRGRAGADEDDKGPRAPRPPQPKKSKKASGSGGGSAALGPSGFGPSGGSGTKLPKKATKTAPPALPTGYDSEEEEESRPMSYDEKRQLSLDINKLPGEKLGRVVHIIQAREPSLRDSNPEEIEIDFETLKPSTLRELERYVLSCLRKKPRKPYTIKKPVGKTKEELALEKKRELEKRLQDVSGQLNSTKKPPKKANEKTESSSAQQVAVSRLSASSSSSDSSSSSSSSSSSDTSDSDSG
Sequence of Bromodomain-containing protein 3 (Q15059 whole entry): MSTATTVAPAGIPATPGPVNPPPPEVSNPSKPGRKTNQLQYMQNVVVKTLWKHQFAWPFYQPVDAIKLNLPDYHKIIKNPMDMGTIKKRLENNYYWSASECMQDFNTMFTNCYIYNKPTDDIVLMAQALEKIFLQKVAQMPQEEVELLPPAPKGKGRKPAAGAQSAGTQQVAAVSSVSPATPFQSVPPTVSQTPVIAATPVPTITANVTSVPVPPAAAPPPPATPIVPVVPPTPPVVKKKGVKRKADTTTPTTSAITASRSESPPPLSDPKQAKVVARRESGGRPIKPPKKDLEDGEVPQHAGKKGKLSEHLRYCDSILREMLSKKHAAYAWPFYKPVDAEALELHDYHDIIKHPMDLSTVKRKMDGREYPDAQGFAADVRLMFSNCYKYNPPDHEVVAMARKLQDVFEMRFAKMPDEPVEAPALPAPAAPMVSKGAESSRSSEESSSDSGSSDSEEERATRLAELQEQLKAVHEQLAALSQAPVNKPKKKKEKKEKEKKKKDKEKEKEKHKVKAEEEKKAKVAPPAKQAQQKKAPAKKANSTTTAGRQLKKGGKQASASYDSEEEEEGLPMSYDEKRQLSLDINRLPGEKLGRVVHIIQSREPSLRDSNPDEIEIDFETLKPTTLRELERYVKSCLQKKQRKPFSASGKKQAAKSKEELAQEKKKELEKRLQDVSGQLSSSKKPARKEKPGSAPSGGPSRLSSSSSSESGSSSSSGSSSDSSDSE

- CL free [1]: 1580 mL/min/kg
- pIC50 [2]: 8.52
- bioavailability [3]: 23%
- fraction unbound [4]: 0.02
- microsomal CLint [5]: 26 µL/min/mg
- pIC50 [6]: < 4.82
- pIC50 [7]: 8.52
- Cmax [8]: 290 nM
- pIC50 [9]: 8.52
- pIC50 [10]: < 4.82
- half-life [11]: 1.8 h
- pIC50 [12]: 8.52
- microsomal CLint [13]: 5.1 µL/min/mg
- pIC50 [14]: < 4.82
Compound: Cc1nnc2n1-c1ccc(-c3ccc(N)nc3)cc1N(c1ccc(Cl)cc1)C[C@H]2C
